This test has as its system 233499-124-R-J3-PDC complex spheroid viability, % test/control. Description: Anticancer human tumor 233499-124-R-J3-PDC patient-derived colon adenocarcinoma cell line growth inhibition. As to conditions: for viability, T/C: stronger effect = lower value. In outline:
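Complex spheroids of tumor cells with HUVEC and human MSCs, exposed to iadademstat combined with other agents. Each agent tested in half-log steps from near clinical Cmax (else 10 microM top), DMSO ≤0.25%.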

The structures appear in SMILES notation. “And” between values parts separate entries of the source, which are not always exact repeats. Equal entries are not always repeated.
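Also: spheroids exposed to agents for one week before readout.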

`CCc1c2c(nc3ccc(O)cc13)-c1cc3c(c(=O)n1C2)COC(=O)[C@]3(O)CC`: the viability, T/C (compound 0.000949 µM) was 91.8% and 92.6%; the viability, T/C (compound 0.003 µM) was 106% and 117%; the viability, T/C (compound 0.00949 µM) is 101% and 94%; the viability, T/C (compound 0.03 µM) was 47.5% and 33.5%; the viability, T/C (compound 0.0949 µM) was 16.6% and 32.4%; the viability, T/C (compound 0.3 µM) is 26.7% and 28.5%. Moreover, for the setting “curve of compound”, the 50% inhibitory concentration (IC50) is 28.4 nM and 21.8 nM.
Turning to `CC(C)CC(NC(=O)CNC(=O)c1cc(Cl)ccc1Cl)B1OC(=O)CC(CC(=O)O)(C(=O)O)O1` (configuration not stated) + NC1CC1c1ccc(-c2cccc(O)c2)cc1, the 50% inhibitory concentration (IC50) is, setting by setting: (curve of first compound, second compound 0.1 µM) 4.93 nM; (curve of first compound, second compound 0.316 µM) 5.3 nM; (curve of first compound, second compound 1 µM) 4.23 nM; (curve of first compound, second compound 3.16 µM) 4.65 nM; (curve of first compound, second compound 10 µM) 3.64 nM. In addition, the viability, T/C is, setting by setting: (second compound 0.1 µM, first compound 0.000316 µM) 114%; (second compound 0.1 µM, first compound 0.001 µM) 105%; (second compound 0.1 µM, first compound 0.00316 µM) 80.2%; (second compound 0.1 µM, first compound 0.01 µM) 1.61%; (second compound 0.1 µM, first compound 0.0316 µM) 0.06%; (second compound 0.1 µM, first compound 0.1 µM) 0.15%. For the same compound, the viability, T/C (second compound 0.316 µM, first compound 0.000316 µM) is 113%; the viability, T/C (second compound 0.316 µM, first compound 0.001 µM) was 109%; the viability, T/C (second compound 0.316 µM, first compound 0.00316 µM) was 88.4%; the viability, T/C (second compound 0.316 µM, first compound 0.01 µM) is 2.74%; the viability, T/C (second compound 0.316 µM, first compound 0.0316 µM) is 0.07%; the viability, T/C (second compound 0.316 µM, first compound 0.1 µM) was 0.16%. Besides, the viability, T/C by setting is: (second compound 1 µM, first compound 0.000316 µM) 104%; (second compound 1 µM, first compound 0.001 µM) 95.1%; (second compound 1 µM, first compound 0.00316 µM) 66.3%; (second compound 1 µM, first compound 0.01 µM) 1.28%; (second compound 1 µM, first compound 0.0316 µM) 0.13%; (second compound 1 µM, first compound 0.1 µM) 0.13%. For the same compound, the viability, T/C is 89.6% (second compound 3.16 µM, first compound 0.000316 µM); 88.1% (second compound 3.16 µM, first compound 0.001 µM); 73.8% (second compound 3.16 µM, first compound 0.00316 µM); 2.88% (second compound 3.16 µM, first compound 0.01 µM); 0.06% (second compound 3.16 µM, first compound 0.0316 µM); 0.12% (second compound 3.16 µM, first compound 0.1 µM). The viability, T/C is, setting by setting: (second compound 10 µM, first compound 0.000316 µM) 70.4%; (second compound 10 µM, first compound 0.001 µM) 88.1%; (second compound 10 µM, first compound 0.00316 µM) 56.9%; (second compound 10 µM, first compound 0.01 µM) 0.89%; (second compound 10 µM, first compound 0.0316 µM) 0.15%; (second compound 10 µM, first compound 0.1 µM) 0.18%.

As a reminder, the viability, T/C is the result in the treated group divided by that in the control group, in per cent. The IC50 is the point on the concentration scale where inhibition reaches its midpoint.
